Laboratory results taken from patent US12370235B2, “Synthetic, non-natural antimicrobial peptides inspired by Staphylococcus auricularis delta toxin” (University of Saskatchewan, priority 2021, dated 2025).
Ends that are not written are not given here.

Experiments:
[1] = test system: Candida duobushaemulonii AR 391; experiment: MIC, YPD broth, CDC and FDA AR Candida isolate panel; format: cell-based
Summary of the method: (§1)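 Static overnight growth at 37° C of yeast (optical density […]) challenged with doubling peptide dilutions; sterile water served as the no-peptide control.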

[2] = test system: Saccharomyces cerevisiae AR 399; experiment: as above; format: cell-based
Summary of the method: as §1

[3] = test system: Candida lusitaniae AR 398; experiment: as above; format: cell-based
Summary of the method: as §1

[4] = test system: Candida duobushaemulonii AR 392; experiment: as above; format: cell-based
Summary of the method: as §1

[5] = test system: Saccharomyces cerevisiae AR 400; experiment: as above; format: cell-based
Summary of the method: as §1

[6] = test system: Candida haemulonii AR 395; experiment: as above; format: cell-based; details: Table 9 below the line: only 200 or 100 μg/mL tested; values reported as 100 are ≤100 μg/mL
Summary of the method: as §1

[7] = test system: Kodamae ohmeri AR 396; experiment: as above; format: cell-based
Summary of the method: as §1

[8] = test system: Candida krusei AR 397; experiment: as above; format: cell-based
Summary of the method: as §1

[9] = test system: Candida haemulonii AR 393; experiment: as above; format: cell-based; details: Table 9 below the line: only 200 or 100 μg/mL tested; values reported as 100 are ≤100 μg/mL
Summary of the method: as §1

[10] = test system: Candida duobushaemulonii AR 394; experiment: as above; format: cell-based
Summary of the method: as §1

[11] = test system: C. albicans MYA-2876; experiment: MIC, YPD broth; format: cell-based, Candida albicans; details: Table 8
Summary of the method: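 Minimum inhibitory concentrations against Candida albicans were determined in YPD broth (10 g/L yeast extract, 20 g/L peptone, 20 g/L dextrose) using peptides of 95% purity. A 180 μl volume of diluted yeast was combined with 20 μl of peptide in a 2-fold dilution series in 96-well plates, with sterile water as control, then incubated standing overnight at 37° C.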

[12] = test system: Mannheimia haemolytica ATCC 33393; experiment: MIC, broth dilution; format: cell-based; details: Table 11; highest concentration 25 μg/mL
Summary of the method: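 Peptides (95% purity) in 2-fold dilution series were mixed with M. haemolytica diluted to OD 6×10^−4 in cation-adjusted Mueller Hinton broth and incubated standing overnight at 37 °C. MIC was the lowest concentration with no visible growth.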

[13] = Circular dichroism spectroscopy; format: physicochemical; details: CD, 50% (v/v) TFE
Source text: The δ-toxins and the PSMs are characterized as α-helical peptides that form amyloid fibers^48. Although the propensity of individual peptides to form amyloids is correlated to their cytotoxicity^49, the amyloid form is not directly implicated in cell membrane disruption^50. […] CD spectroscopy was used to investigate the secondary structure of a subset of peptides within the collection (FIG. 4A, Table 5). The STIP variants adopted α-helical forms in 50% (v/v) trifluoroethanol (TFE), though unlike the full-length S. auricularis δ-toxin, they were unstructured in water. […] Specifically, peptides characterized by the greatest and least α-helical content in TFE had MICs above the highest tested threshold.
Circular dichroism spectroscopy. Peptides were dissolved in water at concentrations between 0.3 and 0.5 mg/mL. CD spectra were recorded on an Applied Photophysics Chirascan Plus CD spectrophotometer at room temperature in a 0.1 cm path-length quartz cuvette. Spectra were recorded from 180 to 260 nm.

[14] = test system: S. aureus ATCC BAA-2313 (MRSA SCCmec type XI); experiment: MIC, broth dilution; format: cell-based, Staphylococcus aureus; details: Table 5; STIP3 variants, highest concentration 100 μg/mL
Summary of the method: (§2)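 Peptides of 95% purity tested as 2-fold dilution series against bacteria diluted to OD 6×10^−4 in cation-adjusted Mueller Hinton broth. Standing cultures incubated overnight at 37° C; MIC is the lowest concentration with no visible growth.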

[15] = test system: S. aureus ATCC 29213; experiment: MIC, broth dilution; format: cell-based, Staphylococcus aureus; details: Table 5; STIP3 variants, highest concentration 100 μg/mL
Summary of the method: as §2

[16] = test system: S. aureus ATCC BAA-44 (MRSA SCCmec type I); experiment: MIC, broth dilution; format: cell-based, Staphylococcus aureus; details: Table 5; STIP3 variants, highest concentration 100 μg/mL
Summary of the method: as §2

[17] = test system: S. aureus ATCC BAA-42 (MRSA SCCmec type VI); experiment: MIC, broth dilution; format: cell-based, Staphylococcus aureus; details: Table 5; STIP3 variants, highest concentration 100 μg/mL
Summary of the method: as §2

[18] = test system: S. aureus ATCC 33592 (MRSA SCCmec type III); experiment: MIC, broth dilution; format: cell-based, Staphylococcus aureus; details: Table 5; STIP3 variants, highest concentration 100 μg/mL
Summary of the method: as §2

[19] = test system: S. aureus ATCC BAA-41 (MRSA SCCmec type II); experiment: MIC, broth dilution; format: cell-based, Staphylococcus aureus; details: Table 5; STIP3 variants, highest concentration 100 μg/mL
Summary of the method: as §2

[20] = test system: S. aureus ATCC BAA-2094 (MRSA SCCmec type V); experiment: MIC, broth dilution; format: cell-based, Staphylococcus aureus; details: Table 5; STIP3 variants, highest concentration 100 μg/mL
Summary of the method: as §2

[21] = test system: S. aureus ATCC BAA-1683 (MRSA SCCmec type IV); experiment: MIC, broth dilution; format: cell-based, Staphylococcus aureus; details: Table 5; STIP3 variants, highest concentration 100 μg/mL
Summary of the method: as §2

[22] = test system: C. albicans Y537; experiment: MIC, YPD broth; format: cell-based, Candida albicans; details: Table 8
[23] = Table 9 below the line: only 200 or 100 μg/mL tested, values reported as 100 are ≤100 μg/mL
[24] = Table 9 top part: titrations from 1.56 to 100 μg/mL

Substance | MIC (μg/mL) Candida duobushaemulonii AR 391 [1, 23] | MIC (μg/mL) Saccharomyces cerevisiae AR 399 [2, 23] [µg/mL] | MIC (μg/mL) Candida lusitaniae AR 398 [3, 23] [µg/mL] | MIC (μg/mL) Candida duobushaemulonii AR 392 [4, 23] | MIC (μg/mL) Saccharomyces cerevisiae AR 400 [5, 23] [µg/mL] | MIC (μg/mL) Candida haemulonii AR 395 [6] | MIC (μg/mL) Kodamae ohmeri AR 396 [7, 23] [µg/mL] | MIC (μg/mL) Candida krusei AR 397 [8, 23] [µg/mL] | MIC (μg/mL) Candida haemulonii AR 393 [9] | MIC (μg/mL) Candida duobushaemulonii AR 394 [10, 23] | MIC C. albicans MYA-2876 [11] [µg/mL] | MIC (μg/mL) M. haemolytica [12] [µg/mL] | MIC S. aureus ATCC BAA 2313 (XI) [14] [µg/mL] | MIC S. aureus ATCC 29213 [15] [µg/mL] | MIC S. aureus ATCC BAA 44 (I) [16] [µg/mL] | MIC S. aureus ATCC BAA 42 (VI) [17] [µg/mL] | MIC S. aureus ATCC 33592 (III) [18] [µg/mL] | MIC S. aureus ATCC BAA 41 (II) [19] [µg/mL] | MIC S. aureus ATCC BAA 2094 (V) [20] [µg/mL] | MIC S. aureus ATCC BAA 1683 (IV) [21] | further results
TVKGLVKWILATVKKFA [STIP3-16, TVKGLVKWILATVKKFA] | > (values below the line were determined using two concentrations of peptide 200 or 100 μg/mL) | ≤ 100 | ≤ 100 | > (values below the line were determined using two concentrations of peptide 200 or 100 μg/mL) | ≤ 100 | > (values below the line were determined using two concentrations of peptide 200 or 100 μg/mL) | ≤ 100 | ≤ 100 | > (values below the line were determined using two concentrations of peptide 200 or 100 μg/mL) | > (values below the line were determined using two concentrations of peptide 200 or 100 μg/mL) | 12.5 | 6.25 | 100 | 100 | 100 | 50 | 50 | 50 | 100 | > (no inhibition was observed at the highest concentration of peptide tested: 100 μg/mL for the STIP3 variants) | α helicity (%) [13]: 45%
TVGGLVKWILATVKKFA-NH2 [STIP3-28, TVGGLVKWILATVKKFA-NH2] | > (values below the line were determined using two concentrations of peptide 200 or 100 μg/mL) | ≤ 100 | ≤ 100 | > (values below the line were determined using two concentrations of peptide 200 or 100 μg/mL) | ≤ 100 | ≤ 100 µg/mL | ≤ 100 | ≤ 100 | > (values below the line were determined using two concentrations of peptide 200 or 100 μg/mL) | > (values below the line were determined using two concentrations of peptide 200 or 100 μg/mL) | 12.5 | 12.5 | 12.5 | 25 | 12.5 | 12.5 | 6.25 | 12.5 | 6.25 | 12.5 µg/mL | MIC C. albicans Y537 [22]: 25 µg/mL; α helicity (%) [13]: 75%
TVGGLVKWILKTVKKFA [STIP3-3, TVGGLVKWILKTVKKFA] | ≤ 100 µg/mL | ≤ 100 | ≤ 100 | > (values below the line were determined using two concentrations of peptide 200 or 100 μg/mL) | ≤ 100 | > (values below the line were determined using two concentrations of peptide 200 or 100 μg/mL) | ≤ 100 | ≤ 100 | > (values below the line were determined using two concentrations of peptide 200 or 100 μg/mL) | > (values below the line were determined using two concentrations of peptide 200 or 100 μg/mL) | 25 | 12.5 | 50 | 25 | 25 | 50 | 25 | 25 | 25 | 50 µg/mL | MIC C. albicans Y537 [22]: 50 µg/mL
TVKGLVKWILNVVKKFA [STIP3-14, TVKGLVKWILNVVKKFA] |  |  |  |  |  |  |  |  |  |  | 12.5 |  | 12.5 | 25 | 25 | 25 | 12.5 | 25 | 50 | 25 µg/mL | MIC (μg/mL) Candida duobushaemulonii AR 391 [1, 24]: 50 µg/mL; MIC (μg/mL) Saccharomyces cerevisiae AR 399 [2, 24]: 25 µg/mL; MIC (μg/mL) Candida lusitaniae AR 398 [3, 24]: 6.25 µg/mL; MIC (μg/mL) Candida duobushaemulonii AR 392 [4, 24]: 50 µg/mL; MIC (μg/mL) Saccharomyces cerevisiae AR 400 [5, 24]: 6.25 µg/mL; MIC (μg/mL) Kodamae ohmeri AR 396 [7, 24]: 25 µg/mL; MIC (μg/mL) Candida krusei AR 397 [8, 24]: 12.5 µg/mL; MIC (μg/mL) Candida duobushaemulonii AR 394 [10, 24]: 100 µg/mL; MIC C. albicans Y537 [22]: 50 µg/mL; α helicity (%) [13]: 64%
